Several values for one entry are separate records, joined by “and”; a condition that tells them apart may be missing. Equal entries are not always repeated.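 Five concentrations, 48 hours, 96-well plates. At the GI50, growth is halved. TGI denotes the concentration required for complete inhibition of growth.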 Where a SMILES comes first, the peptide text is derived from it. [ ]: non-standard residue; d: D form. The star is where a group is joined. ξ: configuration not given here. X3 = COc1ccc(C(N*)c2ccc(OC)cc2)cc1; NMeF = CN[C@@H](Cc1ccccc1)C(=O)O; NMeD = CN[C@@H](CC(=O)O)C(=O)O; NMeV = CN[C@H](C(=O)O)C(C)C; ξNMeV = CNC(C(=O)O)C(C)C; Boc = CC(C)(C)OC(=O)*; ξNMeA = CNC(C)C(=O)O; ξV = CC(C)C(N)C(=O)O

Common to all, as to assay: NCI tumour cell line growth inhibition, 48 h
Assay [1] concerns SR leukemia.
The test system of assay [2] is RXF 393 renal.
In assay [3] the test system is CAKI-1 renal.
In assay [4] the test system is MOLT-4 leukemia.
The subject of assay [5] is MALME-3M melanoma.
The subject of assay [6] is ACHN renal.
The test system of assay [7] is OVCAR-3 ovarian.
In assay [8] the test system is EKVX NSCLC.
Assay [9] relates to OVCAR-5 ovarian.
Assay [10] relates to SW-620 colon.

As to `CCOC(=O)C1=C(C(=O)OCC)C2c3ccccc3C=CN2C(C(=O)OCC)=C(SC)S1` (centres undefined), the TGI in assay [1], in assay [2], in assay [3], in assay [4], in [5] and in [6] was > 100 µM throughout. Moreover, the TGI in assay [7], in [8], in assay [9] and in assay [10] was > 100 µM throughout.

As to `S=c1sc2c(n1-c1ccccc1)NC=NC2S` (centres undefined), the TGI in [1], in assay [2], in assay [3], in assay [4], in [5] and in assay [6] was > 100 µM throughout. Also, the TGI in assay [7], in assay [8], in [9] and in assay [10] was > 100 µM in each case.

For the compound `CN(C)c1cc(NN=C(c2ccc(O)cc2)c2ccc(O)cc2)c([N+](=O)[O-])cc1[N+](=O)[O-]`, the GI50 in assay [1] is 3.15 µM; in [2], 11.3 µM; in assay [3], 6.76 µM; in assay [4], 3.37 µM; in [5], 13.7 µM; in assay [6], 2.36 µM. The GI50 in assay [7] is 2.53 µM; in assay [8], 5.49 µM; in assay [9], 17.2 µM; in assay [10] it was 11.4 µM. Also, the TGI in assay [1] amounted to 22.8 µM; in assay [2] it was 26.9 µM; in assay [3], 20.2 µM; in assay [4] it was 23.2 µM; in [5] it was 28 µM; in assay [6], 13.3 µM. For the same compound, the TGI was determined as 9.81 µM in assay [7], 18.1 µM in assay [8], 32.4 µM in assay [9] and 24.2 µM in assay [10].

Turning to `O=C(O)c1ccc2c(c1C(=O)O)C(=O)OC2(c1ccc(O)cc1)c1ccc(O)cc1`, the TGI in [1], in assay [2], in assay [3], in [4], in assay [5] and in [6] was > 100 µM throughout. Further, the TGI in assay [7], in assay [8], in [9] and in assay [10] was > 100 µM throughout.

For `Nc1ccc(C2=NNC(=O)Cc3cc4c(cc32)OCCO4)cc1Cl`, the GI50 in assay [1] was 1.37 µM; in assay [2] it was 5.27 µM; in assay [3], 1.99 µM; in [4] it was 3.05 µM; in assay [5], 4.13 µM; in assay [6] it was 18.8 µM. Also, the GI50 was 1.51 µM in assay [7], 12.7 µM in [8], 7.96 µM in [9] and 2.01 µM in assay [10]. The TGI in assay [1] was > 50 µM; in assay [2] it was 19.3 µM; in [3], > 50 µM; in assay [4] it was > 50 µM; in [5], > 50 µM; in assay [6], > 50 µM. For the same compound, the TGI is 6.47 µM in [7], > 50 µM in assay [8], > 50 µM in assay [9] and > 50 µM in assay [10].

On to `COc1ccc(C(NC(=O)C[C@@H](C(=O)N(C)C(C)C(=O)O)N(C)C(=O)[C@@H]2CCCN2C(=O)[C@H](C(C)C)N(C)C(=O)C(C(C)C)N(C)C(=O)[C@H](Cc2ccccc2)N(C)C(=O)C(NC(=O)OC(C)(C)C)C(C)C)c2ccc(OC)cc2)cc1` (some centres undefined) (Boc-[ξV][NMeF][ξNMeV][NMeV]P[NMeD](X3)[ξNMeA]-OH), for which the GI50 in assay [1] was 0.00375 µM; in assay [3], 22.9 µM; in assay [4], 17 µM; in assay [5] it was 20.5 µM; in [6], 10.6 µM; in [7], 18.2 µM. Moreover, the values for the GI50 in [8], in assay [9] and in assay [10] were 21.6 µM, 17.3 µM and 18.3 µM, respectively. For the same compound, the TGI in assay [1] was 37.5 µM and 36 µM; in assay [2], 18.5 µM; in [3], 37.5 µM; in [4], 19.3 µM and 43.7 µM; in assay [5] it was 37.5 µM and 37.9 µM; in [6], 37.5 µM and 22.5 µM. For the same compound, the TGI in assay [7] was 27.4 µM and 32.9 µM; in assay [8], 37.5 µM and 39.6 µM; in [9], > 37.5 µM and 31.5 µM; in assay [10], 16.5 µM and 32.3 µM.

Regarding `COc1ccc(/C=N/NC(=O)c2cccc3cc[nH]c23)cc1O`, the GI50 in assay [1] was 0.349 µM; in assay [2] it was 5.83 µM; in assay [3], 0.192 µM; in [4], 2.84 µM; in assay [5] it was 1.96 µM; in assay [6] it was 4.19 µM. In addition, the GI50 is 0.307 µM in [7], 11 µM in assay [8], > 54.6 µM in assay [9] and 0.65 µM in assay [10]. The TGI in assay [1] was > 41.2 µM; in assay [2], > 100 µM; in assay [3], > 49 µM; in [4] it was > 66.2 µM; in assay [5], > 100 µM; in assay [6] it was > 100 µM. Moreover, the TGI is 1.89 µM in assay [7], > 100 µM in [8], > 100 µM in [9] and > 100 µM in assay [10].

As for `Cc1nnc(NC(=O)c2nc(S(=O)(=O)Cc3ccc(F)cc3)ncc2Cl)s1`, the GI50 is 1.44 µM in assay [1]; 1.85 µM in [2]; 1.78 µM in assay [3]; 2.02 µM in assay [4]; 1.8 µM in [5]; 1.94 µM in [6]. Moreover, the GI50 is 1.94 µM in [7], 6.73 µM in assay [8], 12.4 µM in assay [9] and 1.51 µM in [10]. The TGI amounted to 3.55 µM in assay [1]; 3.51 µM in assay [2]; 3.24 µM in assay [3]; 4.38 µM in assay [4]; 3.48 µM in assay [5]; 3.68 µM in assay [6]. In addition, the TGI stood at 3.47 µM in assay [7], 24.3 µM in assay [8], 25.4 µM in [9] and 3.25 µM in [10].

These data come from PubChem BioAssay (NCI).
